# Test system: MCF-7, clone WS8, cells
# Experiment: MCF-7 cell proliferation assay of estrogenic activity
# Assay type: cell-based, human
# Conditions: logarithmic (base 10) Relative Proliferative Effect vs 17-beta estradiol; 'expected or measured' values, not told apart
# Excerpt: The MCF-7 assay uses MCF-7, clone WS8, cells to measure whether and to what extent a substance induces cell proliferation via estrogen receptor (ER)-mediated pathways. The method is described in “Test Method Nomination: MCF-7 Cell Proliferation Assay of Estrogenic Activity” submitted for validation by CertiChem, Inc. to the National Toxicology Program Interagency Center for the Evaluation of Alternative Toxicological Methods (NICEATM) on Jan. 19, 2006 (available online at http://iccvam.niehs.nih.gov/methods/endocrine/endodocs/SubmDoc.pdf).
# A brief summary of the method of the aforementioned MCF-7 assay is provided below. MCF-7, clone WS8, cells are maintained at 37° C. in RMPI (or Roswell Park Memorial Institute medium) containing Phenol Red (e.g., GIBCO Catalog Number 11875119) and supplemented with the indicated additives for routine culture. An aliquot of cells maintained at 37° C. are grown for 2 days in phenol-free media containing 5% charcoal stripped fetal bovine serum in a 25 cm^2 tissue culture flask. Using a robotic dispenser such as an epMotion 5070 unit, MCF-7 cells are then seeded at 400 cells per well in 0.2 ml of hormone-free culture medium in Corning 96-well plates. The cells are adapted for 3 days in the hormone-free culture medium prior to adding the chemical to be assayed for estrogenic activity. The media containing the test chemical is replaced daily for 6 days. At the end of the 7-day exposure to the test chemical, the media is removed, the wells are washed once with 0.2 ml of HBSS (Hanks' Balanced Salt Solution), and then assayed to quantify amounts of DNA per well using a micro-plate modification of the Burton diphenylamine (DPA) assay, which is used to calculate the level of cell proliferation.
# RPE is the ratio between the EC50 of the test chemical and the EC50 of the control substance 17-beta estradiol times 100, where EC50 is “effective concentration 50%” or half-maximum stimulation concentration for cell proliferation measured as total DNA in the MCF-7 assay.
row,SMILES,Log RPE
1,O=S(=O)(c1ccc(O)cc1)c1ccc(O)cc1 [Bisphenol S],−2
2,C[C@]12CC[C@@H]3c4ccc(O)cc4CC[C@H]3[C@@H]1CC[C@@H]2O [17β-estradiol],2.00
3,Oc1ccc(Cc2ccc(O)cc2)cc1 [Bisphenol F],−2
